Reference: patent US20240067631A1, “PYRAZOLE DERIVATIVES USEFUL AS NAMPT MODULATORS” (Cytokinetics, Inc., priority 2020, published 2024)

Biological target: human NAMPT (Homo sapiens (Human), UniProt P43490)
Assay: Human recombinant enzyme assay (NMN fluorescence biochemical assay)
Conditions: 6 nM human NAMPT, 60 min; for AC1.4 Human: concentration of compound that generates 40% higher activity over basal; for EC50: concentration that gives half-maximal activation
Outline: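 Recombinant human NAMPT (6 nM) with 2.5 mM ATP, […] PRPP and […] nicotinamide in HEPES pH 7.2 with DTT, CHAPS, NaCl, MgCl2; 60 min at ambient temperature. NMN derivatised with acetophenone/KOH/formic acid, fluorescence read at 355/460 nm. AC1.4 (40% above basal) and EC50 reported.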

Chain of human NAMPT (P43490 whole entry): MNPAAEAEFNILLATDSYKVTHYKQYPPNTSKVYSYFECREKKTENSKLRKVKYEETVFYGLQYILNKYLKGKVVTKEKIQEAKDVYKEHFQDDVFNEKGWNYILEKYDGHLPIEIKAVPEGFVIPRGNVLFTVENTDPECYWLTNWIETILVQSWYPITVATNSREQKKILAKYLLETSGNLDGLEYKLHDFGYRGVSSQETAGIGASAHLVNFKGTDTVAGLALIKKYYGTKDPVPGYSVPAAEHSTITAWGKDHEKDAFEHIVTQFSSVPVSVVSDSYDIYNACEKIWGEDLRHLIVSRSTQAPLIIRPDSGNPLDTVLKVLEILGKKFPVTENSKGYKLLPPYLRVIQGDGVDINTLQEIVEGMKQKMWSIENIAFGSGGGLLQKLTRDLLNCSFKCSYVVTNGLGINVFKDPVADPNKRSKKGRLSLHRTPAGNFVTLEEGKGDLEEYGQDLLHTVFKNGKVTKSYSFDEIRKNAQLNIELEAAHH

AC1.4 Human | EC50 | Structure (SMILES)
1.17 µM | 9.24 µM | Cc1nc(C(=O)NC(C)c2ccon2)nc(NCCc2cn[nH]c2)c1C (stereo not drawn) [Compound 90, 4-((2-(1H-pyrazol-4-yl)ethyl)amino)-N-(1-(isoxazol-3-yl)ethyl)-5,6-dimethylpyrimidine-2-carboxamide]
3.249 µM | 21.3 µM | Cc1nc(C(=O)NCCc2cncc(F)c2)nc(NCCc2cn[nH]c2)c1C [Compound 129, 4-((2-(1H-pyrazol-4-yl)ethyl)amino)-N-(2-(5-fluoropyridin-3-yl)ethyl)-5,6-dimethylpyrimidine-2-carboxamide]
2.084 µM | 2.97 µM | Cc1nc(C(=O)N[C@H](C)c2cc3ccccc3o2)nc(NCCc2cn[nH]c2)c1C [Compound 112, (R)-4-((2-(1H-pyrazol-4-yl)ethyl)amino)-N-(1-(benzofuran-2-yl)ethyl)-5,6-dimethylpyrimidine-2-carboxamide]
31.857 µM | 40.2 µM | Cc1nc(C(=O)N2CC(CO)(c3ccccc3)C2)nc(NCCc2cn[nH]c2)c1C [Compound 84, (4-((2-(1H-pyrazol-4-yl)ethyl)amino)-5,6-dimethylpyrimidin-2-yl)(3-(hydroxymethyl)-3-phenylazetidin-1-yl)methanone]
3.235 µM | 28 µM | Cc1nc(C(=O)NCC(O)C(F)(F)F)nc(NCCc2cn[nH]c2)c1C (stereo not drawn) [Compound 128, 4-((2-(1H-pyrazol-4-yl)ethyl)amino)-5,6-dimethyl-N-(3,3,3-trifluoro-2-hydroxypropyl)pyrimidine-2-carboxamide]
0.3055 µM | 2.1 µM | COC[C@H](NC(=O)c1nc(C)c(C)c(NCCc2cn[nH]c2)n1)c1cccc(F)c1 [Compound 49, (R)-4-((2-(1H-pyrazol-4-yl)ethyl)amino)-N-(1-(3-fluorophenyl)-2-methoxyethyl)-5,6-dimethylpyrimidine-2-carboxamide]
0.9345 µM | 7.76 µM | Cc1nc(C(=O)N2CC(F)(F)C2)nc(NCCc2cn[nH]c2)c1C [Compound 91, (4-((2-(1H-pyrazol-4-yl)ethyl)amino)-5,6-dimethylpyrimidin-2-yl)(3,3-difluoroazetidin-1-yl)methanone]
2.5075 µM | 22.1 µM | Cc1nc(C(=O)NC(C)(C)c2cccnc2)nc(NCCc2cn[nH]c2)c1C [Compound 121, 4-((2-(1H-pyrazol-4-yl)ethyl)amino)-5,6-dimethyl-N-(2-(pyridin-3-yl)propan-2-yl)pyrimidine-2-carboxamide]
3.2975 µM | 41 µM | Cc1ccc(C(C)NC(=O)c2nc(C)c(C)c(NCCc3cn[nH]c3)n2)s1 (stereo not drawn) [Compound 130, 4-((2-(1H-pyrazol-4-yl)ethyl)amino)-5,6-dimethyl-N-(1-(5-methylthiophen-2-yl)ethyl)pyrimidine-2-carboxamide]
2.084 µM | 18.3 µM | Cc1nc(C(=O)NCCc2ccncc2F)nc(NCCc2cn[nH]c2)c1C [Compound 113, 4-((2-(1H-pyrazol-4-yl)ethyl)amino)-N-(2-(3-fluoropyridin-4-yl)ethyl)-5,6-dimethylpyrimidine-2-carboxamide]
4.755 µM | 18.4 µM | Cc1nc(C(=O)Nc2ccncc2F)nc(NCCc2cn[nH]c2)c1C [Compound 144, 4-((2-(1H-pyrazol-4-yl)ethyl)amino)-N-(3-fluoropyridin-4-yl)-5,6-dimethylpyrimidine-2-carboxamide]
0.5395 µM | 4.18 µM | Cc1nc(C(=O)NC(C)(C)c2ccccn2)nc(NCCc2cn[nH]c2)c1C [Compound 69, 4-((2-(1H-pyrazol-4-yl)ethyl)amino)-5,6-dimethyl-N-(2-(pyridin-2-yl)propan-2-yl)pyrimidine-2-carboxamide]
0.406 µM | 0.788 µM | Cc1nc(C(=O)NCc2coc3ccccc23)nc(NCCc2cn[nH]c2)c1C [Compound 58, 4-((2-(1H-pyrazol-4-yl)ethyl)amino)-N-(benzofuran-3-ylmethyl)-5,6-dimethylpyrimidine-2-carboxamide]
0.5795 µM | 3.12 µM | Cc1nc(C(=O)NC(C)c2ccc(Cl)s2)nc(NCCc2cn[nH]c2)c1C (stereo not drawn) [Compound 70, 4-((2-(1H-pyrazol-4-yl)ethyl)amino)-N-(1-(5-chlorothiophen-2-yl)ethyl)-5,6-dimethylpyrimidine-2-carboxamide]
6.337 µM | 22.3 µM | Cc1nc(C(=O)N2CC(O)(C3CC3)C2)nc(NCCc2cn[nH]c2)c1C [Compound 97, (4-((2-(1H-pyrazol-4 yl)ethyl)amino)-5,6-dimethylpyrimidin-2-yl)(3-cyclopropyl-3-hydroxyazetidin-1-yl)methanone]
0.8835 µM | 13.7 µM | Cc1nc(C(=O)N2CC(O)(c3ccccc3F)C2)nc(NCCc2cn[nH]c2)c1C [Compound 77, (4-((2-(1H-pyrazol-4-yl)ethyl)amino)-5,6-dimethylpyrimidin-2-yl)(3-(2-fluorophenyl)-3-hydroxyazetidin-1-yl)methanone]

Further lines, the compound ahead of its results:

Structure (SMILES) | AC1.4 Human | EC50
COc1cccc(C(C)NC(=O)c2nc(C)c(C)c(NCCc3cn[nH]c3)n2)n1 (stereo not drawn) [Compound 68, 4-((2-(1H-pyrazol-4-yl)ethyl)amino)-N-(1-(6-methoxypyridin-2-yl)ethyl)-5,6-dimethylpyrimidine-2-carboxamide] | 0.563 µM | 1.64 µM
Cc1nc(C(=O)NC2(c3ccccn3)CCC2)nc(NCCc2cn[nH]c2)c1C [Compound 145, 4-((2-(1H-pyrazol-4-yl)ethyl)amino)-5,6-dimethyl-N-(1-(pyridin-2-yl)cyclobutyl)pyrimidine-2-carboxamide] | 4.9555 µM | 22.4 µM
Cc1nc(C(=O)NCc2cccc(F)c2)nc(NCCc2cn[nH]c2)c1C [Compound 32, 4-((2-(1H-pyrazol-4-yl)ethyl)amino)-N-(3-fluorobenzyl)-5,6-dimethylpyrimidine-2-carboxamide] | 0.193 µM | 0.929 µM
Cc1nc(C(=O)N2CCC[C@@H]2c2ccccc2F)nc(NCCc2cn[nH]c2)c1C [Compound 54, (R)-(4-((2-(1H-pyrazol-4-yl)ethyl)amino)-5,6-dimethylpyrimidin-2-yl)(2-(2-fluorophenyl)pyrrolidin-1-yl)methanone] | 0.35 µM | 2.37 µM
Cc1nc(C(=O)N[C@H](C)c2ccco2)nc(NCCc2cn[nH]c2)c1C [Compound 75, (R)-4-((2-(1H-pyrazol-4-yl)ethyl)amino)-N-(1-(furan-2-yl)ethyl)-5,6-dimethylpyrimidine-2-carboxamide] | 0.7725 µM | 2.62 µM
Cc1nc(C(=O)N2C[C@H](c3ccccc3)[C@@H](O)C2)nc(NCCc2cn[nH]c2)c1C [Compound 42, (4-((2-(1H-pyraazol-4-yl)ethyl)amino)-5,6-dimethylpyrimidin-2-yl)((3R,4S)-3-hydroxy-4-phenylpyrrolidin-1-yl)methanone] | 0.265 µM | 2.92 µM
Cc1nc(C(=O)N[C@@H](C)c2ccncc2)nc(NCCc2cn[nH]c2)c1C [Compound 87, (S)-4-((2-(1H-pyrazol-4-yl)ethyl)amino)-5,6-dimethyl-N-(1-(pyridin-4-yl)ethyl)pyrimidine-2-carboxamide] | 1.1375 µM | 13.3 µM
Cc1nc(C(=O)N2CCC2c2cccc(F)c2)nc(NCCc2cn[nH]c2)c1C (stereo not drawn) [Compound 115, (4-((2-(1H-pyrazol-4-yl)ethyl)amino)-5,6-dimethylpyrimidin-2-yl)(2-(3-fluorophenyl)azetidin-1-yl)methanone] | 2.136 µM | 10.7 µM
Cc1nc(C(=O)N2CC(C(F)(F)F)C2)nc(NCCc2cn[nH]c2)c1C [Compound 100, (4-((2-(1H-pyrazol-4-yl)ethyl)amino)-5,6-dimethylpyrimidin-2-yl)(3-(trifluoromethyl)azetidin-1-yl)methanone] | 6.3085 µM | 40.2 µM
Cc1cc(NCCc2cn[nH]c2)nc(C(=O)N2CCC[C@@H]2c2cccc(F)c2)c1 [Compound 152] | 12.6 µM | 
COc1cccnc1[C@@H](C)NC(=O)c1nc(C)c(C)c(NCCc2cn[nH]c2)n1 [Compound 124, (R)-4-((2-(1H-pyrazol-4-yl)ethyl)amino)-N-(1-(3-methoxypyridin-2-yl)ethyl)-5,6-dimethylpyrimidine-2-carboxamide] | 2.6905 µM | 12 µM
Cc1nc(C(=O)N[C@H](C)c2ccc(F)cn2)nc(NCCc2cn[nH]c2)c1C [Compound 118, (R)-4-((2-(1H-pyrazol-4-yl)ethyl)amino)-N-(1-(5-fluoropyridin-2-yl)ethyl)-5,6-dimethylpyrimidine-2-carboxamide] | 2.384 µM | 11.8 µM
Cc1nc(C(=O)N2CCOCC2c2ccccc2Cl)nc(NCCc2cn[nH]c2)c1C (stereo not drawn) [Compound 80, (4-((2-(1H-pyrazol-4-yl)ethyl)amino)-5,6-dimethylpyrimidin-2-yl)(3-(2-chlorophenyl)morpholino)methanone] | 0.877 µM | 10.4 µM
Cc1nc(C(=O)N2C[C@@H](C)OC[C@H]2c2ccccc2)nc(NCCc2cn[nH]c2)c1C [Compound 62, (4-((2-(1H-pyrazol-4-yl)ethyl)amino)-5,6-dimethylpyrimidin-2-yl)((2R,5R)-2-methyl-5-phenylmorpholino)methanone] | 0.4295 µM | 3.21 µM
Cc1nc(C(=O)N[C@H](C)c2ccsc2)nc(NCCc2cn[nH]c2)c1C [Compound 35] | 0.231 µM | 0.617 µM
Cc1nc(C(=O)N2CC(C)(c3ccccc3)C2)nc(NCCc2cn[nH]c2)c1C [Compound 89, (4-((2-(1H-pyrazol-4-yl)ethyl)amino)-5,6-dimethylpyrimidin-2-yl)(3-methyl-3-phenylazetidin-1-yl)methanone] | 4.9195 µM | 37.3 µM
